Assay results as given in patent publication US8895756B2, “Bendamustine pharmaceutical compositions” (priority 2005, dated 2014).

Test: HPLC stability of bendamustine (15 mg/mL, mannitol 25.5 mg/mL) in alcohol/water solutions at 5° C.
Format: physicochemical
Details: for HP1 (%) / Purity (% Area) / Dimer (%): 5° C.
Experimental: A sample of each formulation was analyzed by HPLC after 0, 3, 6 and 24 hours when stored at 5° C.

[1] = 20% Butanol (2 layers, vortexed), 0 hours
[2] = 20% Butanol (2 layers, vortexed), 3 hours
[3] = 20% Butanol (2 layers, vortexed), 6 hours
[4] = 20% Butanol (2 layers, vortexed), 24 hours
[5] = 30% Butanol (2 layers, vortexed), 0 hours
[6] = 30% Butanol (2 layers, vortexed), 3 hours
[7] = 30% Butanol (2 layers, vortexed), 6 hours
[8] = 30% Butanol (2 layers, vortexed), 24 hours

Q: What does the source list for `Cl.Cn1c(CCCC(=O)O)nc2cc(N(CCCl)CCCl)ccc21` [bendamustine, 4-{5-[Bis(2-chloroethyl)amino]-1-methyl-2-benzimidazolyl}butyric acid]?
A: HP1 (%) (10% n-Propanol, 6 hours): 0.70%; Purity (% Area) (10% n-Propanol, 6 hours): 98.92 % Area; Dimer (%) (10% n-Propanol, 24 hours): 0.28%; HP1 (%) (10% n-Propanol, 24 hours): 1.83%; Purity (% Area) (10% n-Propanol, 24 hours): 97.67 % Area; Dimer (%) [1]: 0.10%; HP1 (%) [1]: 0.23%; Purity (% Area) [1]: 99.54 % Area; Dimer (%) [2]: 0.11%; HP1 (%) [2]: 0.31%; Purity (% Area) [2]: 99.45 % Area; Dimer (%) [3]: 0.11%; HP1 (%) [3]: 0.40%; Purity (% Area) [3]: 99.30 % Area; Dimer (%) [4]: 0.14%; HP1 (%) [4]: 0.91%; Purity (% Area) [4]: 98.81 % Area; Dimer (%) (20% Ethanol, 0 hours): 0.10%; HP1 (%) (20% Ethanol, 0 hours): 0.22%; Purity (% Area) (20% Ethanol, 0 hours): 99.54 % Area; Dimer (%) (20% Ethanol, 3 hours): 0.11%; HP1 (%) (20% Ethanol, 3 hours): 0.30%; Purity (% Area) (20% Ethanol, 3 hours): 99.45 % Area; Dimer (%) (20% Ethanol, 6 hours): 0.11%; HP1 (%) (20% Ethanol, 6 hours): 0.39%; Purity (% Area) (20% Ethanol, 6 hours): 99.36 % Area; Dimer (%) (20% Ethanol, 24 hours): 0.15%; HP1 (%) (20% Ethanol, 24 hours): 0.96%; Purity (% Area) (20% Ethanol, 24 hours): 98.61 % Area; Dimer (%) (20% Iso-propanol, 0 hours): 0.11%; HP1 (%) (20% Iso-propanol, 0 hours): 0.21%; Purity (% Area) (20% Iso-propanol, 0 hours): 99.49 % Area; Dimer (%) (20% Iso-propanol, 3 hours): 0.12%; HP1 (%) (20% Iso-propanol, 3 hours): 0.31%; Purity (% Area) (20% Iso-propanol, 3 hours): 99.39 % Area; Dimer (%) (20% Iso-propanol, 6 hours): 0.13%; HP1 (%) (20% Iso-propanol, 6 hours): 0.42%; Purity (% Area) (20% Iso-propanol, 6 hours): 99.22 % Area; Dimer (%) (20% Iso-propanol, 24 hours): 0.17%; HP1 (%) (20% Iso-propanol, 24 hours): 1.04%; Purity (% Area) (20% Iso-propanol, 24 hours): 98.61 % Area; Dimer (%) (20% Methanol, 0 hours): 0.11%; HP1 (%) (20% Methanol, 0 hours): 0.22%; Purity (% Area) (20% Methanol, 0 hours): 99.56 % Area; Dimer (%) (20% Methanol, 3 hours): 0.11%; HP1 (%) (20% Methanol, 3 hours): 0.38%; Purity (% Area) (20% Methanol, 3 hours): 99.31 % Area; Dimer (%) (20% Methanol, 6 hours): 0.12%; HP1 (%) (20% Methanol, 6 hours): 0.50%; Purity (% Area) (20% Methanol, 6 hours): 98.99 % Area; Dimer (%) (20% Methanol, 24 hours): 0.16%; HP1 (%) (20% Methanol, 24 hours): 1.15%; Purity (% Area) (20% Methanol, 24 hours): 98.31 % Area; Dimer (%) (20% Tert-butanol, 0 hours): 0.11%; HP1 (%) (20% Tert-butanol, 0 hours): 0.17%; Purity (% Area) (20% Tert-butanol, 0 hours): 99.59 % Area; Dimer (%) (20% Tert-butanol, 3 hours): 0.11%; HP1 (%) (20% Tert-butanol, 3 hours): 0.29%; Purity (% Area) (20% Tert-butanol, 3 hours): 99.48 % Area; Dimer (%) (20% Tert-butanol, 6 hours): 0.12%; HP1 (%) (20% Tert-butanol, 6 hours): 0.40%; Purity (% Area) (20% Tert-butanol, 6 hours): 99.35 % Area; Dimer (%) (20% Tert-butanol, 24 hours): 0.20%; HP1 (%) (20% Tert-butanol, 24 hours): 1.27%; Purity (% Area) (20% Tert-butanol, 24 hours): 98.35 % Area; Dimer (%) (20% n-Propanol, 0 hours): 0.13%; HP1 (%) (20% n-Propanol, 0 hours): 0.33%; Purity (% Area) (20% n-Propanol, 0 hours): 99.45 % Area; Dimer (%) (20% n-Propanol, 3 hours): 0.13%; HP1 (%) (20% n-Propanol, 3 hours): 0.26%; Purity (% Area) (20% n-Propanol, 3 hours): 99.42 % Area; Dimer (%) (20% n-Propanol, 6 hours): 0.14%; HP1 (%) (20% n-Propanol, 6 hours): 0.39%; Purity (% Area) (20% n-Propanol, 6 hours): 99.29 % Area; Dimer (%) (20% n-Propanol, 24 hours): 0.24%; HP1 (%) (20% n-Propanol, 24 hours): 0.97%; Purity (% Area) (20% n-Propanol, 24 hours): 98.60 % Area; HP1 (30% (v/v) TBA, stored at 5° C. for up to 24 hours): about 0.4%; Dimer (%) [5]: 0.10%; HP1 (%) [5]: 0.24%; Purity (% Area) [5]: 99.55 % Area; Dimer (%) [6]: 0.10%; HP1 (%) [6]: 0.29%; Purity (% Area) [6]: 99.40 % Area; Dimer (%) [7]: 0.11%; HP1 (%) [7]: 0.37%; Dimer (%) [8]: 0.12%; HP1 (%) [8]: 0.74%; Dimer (%) (30% Ethanol, 0 hours): 0.10%; HP1 (%) (30% Ethanol, 0 hours): 0.15%; Purity (% Area) (30% Ethanol, 0 hours): 99.62 % Area; Dimer (%) (30% Ethanol, 3 hours): 0.11%; HP1 (%) (30% Ethanol, 3 hours): 0.21%; Purity (% Area) (30% Ethanol, 3 hours): 99.56 % Area; Dimer (%) (30% Ethanol, 6 hours): 0.12%; HP1 (%) (30% Ethanol, 6 hours): 0.24%; Purity (% Area) (30% Ethanol, 6 hours): 99.52 % Area; Dimer (%) (30% Ethanol, 24 hours): 0.12%; HP1 (%) (30% Ethanol, 24 hours): 0.45%; Purity (% Area) (30% Ethanol, 24 hours): 99.21 % Area; Dimer (%) (30% Iso-propanol, 0 hours): 0.10%; HP1 (%) (30% Iso-propanol, 0 hours): 0.15%; Purity (% Area) (30% Iso-propanol, 0 hours): 99.56 % Area; Dimer (%) (30% Iso-propanol, 3 hours): 0.12%; HP1 (%) (30% Iso-propanol, 3 hours): 0.20%; Purity (% Area) (30% Iso-propanol, 3 hours): 99.47 % Area; Dimer (%) (30% Iso-propanol, 6 hours): 0.11%; HP1 (%) (30% Iso-propanol, 6 hours): 0.24%; Purity (% Area) (30% Iso-propanol, 6 hours): 99.40 % Area; Dimer (%) (30% Iso-propanol, 24 hours): 0.14%; HP1 (%) (30% Iso-propanol, 24 hours): 0.52%; Purity (% Area) (30% Iso-propanol, 24 hours): 99.15 % Area; Dimer (%) (30% Methanol, 0 hours): 0.10%; HP1 (%) (30% Methanol, 0 hours): 0.18%; Purity (% Area) (30% Methanol, 0 hours): 99.59 % Area; Dimer (%) (30% Methanol, 3 hours): 0.11%; HP1 (%) (30% Methanol, 3 hours): 0.27%; Purity (% Area) (30% Methanol, 3 hours): 99.43 % Area; Dimer (%) (30% Methanol, 6 hours): 0.11%; HP1 (%) (30% Methanol, 6 hours): 0.34%; Purity (% Area) (30% Methanol, 6 hours): 99.25 % Area; Dimer (%) (30% Methanol, 24 hours): 0.13%; HP1 (%) (30% Methanol, 24 hours): 0.76%; Purity (% Area) (30% Methanol, 24 hours): 98.65 % Area; Dimer (%) (30% Tert-butanol, 0 hours): 0.10%; HP1 (%) (30% Tert-butanol, 0 hours): 0.13%; Purity (% Area) (30% Tert-butanol, 0 hours): 99.63 % Area; Dimer (%) (30% Tert-butanol, 3 hours): 0.10%; HP1 (%) (30% Tert-butanol, 3 hours): 0.16%; Purity (% Area) (30% Tert-butanol, 3 hours): 99.60 % Area; Dimer (%) (30% Tert-butanol, 6 hours): 0.11%; HP1 (%) (30% Tert-butanol, 6 hours): 0.18%; Purity (% Area) (30% Tert-butanol, 6 hours): 99.58 % Area; Dimer (%) (30% Tert-butanol, 24 hours): 0.12%; HP1 (%) (30% Tert-butanol, 24 hours): 0.34%; Purity (% Area) (30% Tert-butanol, 24 hours): 99.42 % Area; Dimer (%) (30% n-Propanol, 0 hours): 0.13%; HP1 (%) (30% n-Propanol, 0 hours): 0.15%; Purity (% Area) (30% n-Propanol, 0 hours): 99.53 % Area; Dimer (%) (30% n-Propanol, 3 hours): 0.15%; HP1 (%) (30% n-Propanol, 3 hours): 0.15%; Purity (% Area) (30% n-Propanol, 3 hours): 99.51 % Area; Dimer (%) (30% n-Propanol, 6 hours): 0.11%; HP1 (%) (30% n-Propanol, 6 hours): 0.20%; Purity (% Area) (30% n-Propanol, 6 hours): 99.44 % Area; Dimer (%) (30% n-Propanol, 24 hours): 0.17%; HP1 (%) (30% n-Propanol, 24 hours): 0.36%; Purity (% Area) (30% n-Propanol, 24 hours): 99.27 % Area
